Counter-ions that a name gives are not always drawn.
Legend:
Details in all cases: incubation time: 27 h, anaerobic, 37 °C
[1] = test system: Clostridium sporogenes DSM 1664; assay: growth (OD595) fold change vs plate DMSO controls (fold change (ratio)); higher = more growth
[2] = test system: Clostridium sporogenes DSM 1664; assay: fold change of Tryptamine concentration vs plate DMSO controls (fold change (ratio)); higher = more amine produced
Escherichia coli IAI1 [3] = assay: growth (OD595) fold change vs plate DMSO controls (fold change (ratio)); higher = more growth
Escherichia coli IAI1 [4] = assay: fold change of Putrescine concentration vs plate DMSO controls (fold change (ratio)); higher = more amine produced
Escherichia coli IAI1 [5] = assay: fold change of Cadaverine concentration vs plate DMSO controls (fold change (ratio)); higher = more amine produced
[6] = test system: Ruminococcus gnavus DSM 108212; assay: growth (OD595) fold change vs plate DMSO controls (fold change (ratio)); higher = more growth
[7] = test system: Ruminococcus gnavus DSM 108212; assay: fold change of Tryptamine concentration vs plate DMSO controls (fold change (ratio)); higher = more amine produced
[8] = test system: Ruminococcus gnavus DSM 108212; assay: fold change of 2-Phenylethylamine concentration vs plate DMSO controls (fold change (ratio)); higher = more amine produced

Row | SMILES | growth ([1]; 0.6125 µM) | growth ([1]; 1.25 µM) | growth ([1]; 2.5 µM) | growth ([1]; 5 µM) | growth ([1]; 10 µM) | growth ([1]; 20 µM) | fold change of Tryptamine concentration ([2]; 0.6125 µM) | fold change of Tryptamine concentration ([2]; 1.25 µM) | fold change of Tryptamine concentration ([2]; 2.5 µM) | fold change of Tryptamine concentration ([2]; 5 µM) | fold change of Tryptamine concentration ([2]; 10 µM) | fold change of Tryptamine concentration ([2]; 20 µM) | also measured
1 | CC(=O)NC[C@H]1CN(c2ccc(N3CCOCC3)c(F)c2)C(=O)O1 [Linezolid] | 1.14 | 1.05 | 1.06 | 0.814 | 0.563 | -0.0339 | 0.966 | 0.923 | 0.894 | 0.77 | 0.51 | 0.0345 | 
2 | COc1cccc(OC)c1C(=O)N[C@@H]1C(=O)N2[C@@H]1SC(C)(C)[C@@H]2C(=O)O [Methicillin sodium] | 0.843 | 0.888 | 0.839 | 0.95 | 0.469 | 0.469 | 1.02 | 1 | 1.01 | 0.915 | 0.779 | 0.417 | 
3 | Cc1ncc([N+](=O)[O-])n1CCO [Metronidazole] | 1.05 | 1.12 | 1.08 | -0.0178 | -0.0224 | -0.023 | 0.744 | 0.758 | 0.55 | 0.0225 | 0.0206 | 0.0183 | 
4 | CO[C@@]12[C@H](COC(N)=O)C3=C(C(=O)C(C)=C(N)C3=O)N1C[C@@H]1N[C@@H]12 [Mitomycin C] |  |  |  |  |  |  |  |  |  |  |  |  | growth (Escherichia coli IAI1 [3]; 0.6125 µM): 0.872; growth (Escherichia coli IAI1 [3]; 1.25 µM): 0.904; growth (Escherichia coli IAI1 [3]; 2.5 µM): 0.925; growth (Escherichia coli IAI1 [3]; 5 µM): 1.05; growth (Escherichia coli IAI1 [3]; 10 µM): 0.764; growth (Escherichia coli IAI1 [3]; 20 µM): -0.0235; fold change of Putrescine concentration (Escherichia coli IAI1 [4]; 0.6125 µM): 0.929; fold change of Putrescine concentration (Escherichia coli IAI1 [4]; 1.25 µM): 1.35; fold change of Putrescine concentration (Escherichia coli IAI1 [4]; 2.5 µM): 1.27; fold change of Putrescine concentration (Escherichia coli IAI1 [4]; 5 µM): 1.13; fold change of Putrescine concentration (Escherichia coli IAI1 [4]; 10 µM): 0.82; fold change of Putrescine concentration (Escherichia coli IAI1 [4]; 20 µM): 0.673; fold change of Cadaverine concentration (Escherichia coli IAI1 [5]; 0.6125 µM): 1.42; fold change of Cadaverine concentration (Escherichia coli IAI1 [5]; 1.25 µM): 1.59; fold change of Cadaverine concentration (Escherichia coli IAI1 [5]; 2.5 µM): 1.98; fold change of Cadaverine concentration (Escherichia coli IAI1 [5]; 5 µM): 1.94; fold change of Cadaverine concentration (Escherichia coli IAI1 [5]; 10 µM): 1.25; fold change of Cadaverine concentration (Escherichia coli IAI1 [5]; 20 µM): 0.41
5 | CC[C@@]1([C@@H]2O[C@@H]([C@H]3O[C@@](O)(CO)[C@H](C)C[C@@H]3C)C[C@@H]2C)CC[C@H]([C@]2(C)CC[C@]3(C[C@H](O)[C@@H](C)[C@@H]([C@@H](C)[C@@H](OC)[C@H](C)C(=O)O)O3)O2)O1 [Monensin sodium salt] | 0.907 | 0.829 | 0.712 | 0.829 | 0.664 | 0.516 | 0.986 | 0.919 | 0.785 | 0.555 | 0.39 | 0.267 | 
6 | CCn1cc(C(=O)O)c(=O)c2cc3c(cc21)OCO3 [Oxolinic acid] | 1.04 | 0.931 | 1.05 | 0.775 | 0.806 | -0.028 | 0.975 | 1.03 | 1.13 | 0.788 | 0.446 | 0.0475 | 
7 | CN(C)[C@@H]1C(=O)C(C(N)=O)=C(O)[C@@]2(O)C(=O)C3=C(O)c4c(O)cccc4[C@@](C)(O)[C@H]3[C@H](O)[C@@H]12 [Oxytetracycline dihydrate] |  |  |  |  |  |  |  |  |  |  |  |  | growth ([6]; 0.6125 µM): 0.833; growth ([6]; 1.25 µM): 0.83; growth ([6]; 2.5 µM): 0.68; growth ([6]; 5 µM): 0.594; growth ([6]; 10 µM): 0.414; growth ([6]; 20 µM): 0.356; fold change of Tryptamine concentration ([7]; 0.6125 µM): 1.13; fold change of Tryptamine concentration ([7]; 1.25 µM): 1.31; fold change of Tryptamine concentration ([7]; 2.5 µM): 1.69; fold change of Tryptamine concentration ([7]; 5 µM): 2.71; fold change of Tryptamine concentration ([7]; 10 µM): 2.8; fold change of Tryptamine concentration ([7]; 20 µM): 2.82; fold change of 2-Phenylethylamine concentration ([8]; 0.6125 µM): 0.956; fold change of 2-Phenylethylamine concentration ([8]; 1.25 µM): 1.13; fold change of 2-Phenylethylamine concentration ([8]; 2.5 µM): 1.34; fold change of 2-Phenylethylamine concentration ([8]; 5 µM): 2.06; fold change of 2-Phenylethylamine concentration ([8]; 10 µM): 2.02; fold change of 2-Phenylethylamine concentration ([8]; 20 µM): 2.08
8 | CC(C)(c1cc(Br)c(O)c(Br)c1)c1cc(Br)c(O)c(Br)c1 [TBBPA] | 1.09 | 1.16 | 1.25 | 1.25 | 0.452 | -0.0298 | 1.18 | 1.18 | 1.18 | 1.27 | 0.379 | 0.0168 | 
9 | CS(=O)(=O)c1ccc([C@@H](O)[C@@H](CO)NC(=O)C(Cl)Cl)cc1 [Thiamphenicol] |  |  |  |  |  |  |  |  |  |  |  |  | growth ([6]; 0.6125 µM): 0.84; growth ([6]; 1.25 µM): 0.789; growth ([6]; 2.5 µM): 0.797; growth ([6]; 5 µM): 0.686; growth ([6]; 10 µM): 0.57; growth ([6]; 20 µM): 0.38; fold change of Tryptamine concentration ([7]; 0.6125 µM): 1.04; fold change of Tryptamine concentration ([7]; 1.25 µM): 0.877; fold change of Tryptamine concentration ([7]; 2.5 µM): 0.535; fold change of Tryptamine concentration ([7]; 5 µM): 0.443; fold change of Tryptamine concentration ([7]; 10 µM): 0.342; fold change of Tryptamine concentration ([7]; 20 µM): 0.267; fold change of 2-Phenylethylamine concentration ([8]; 0.6125 µM): 1.16; fold change of 2-Phenylethylamine concentration ([8]; 1.25 µM): 1.23; fold change of 2-Phenylethylamine concentration ([8]; 2.5 µM): 0.61; fold change of 2-Phenylethylamine concentration ([8]; 5 µM): 0.471; fold change of 2-Phenylethylamine concentration ([8]; 10 µM): 0.3; fold change of 2-Phenylethylamine concentration ([8]; 20 µM): 0.329
10 | CO[C@H]1C[C@H](O[C@H]2[C@H](C)[C@@H](O[C@@H]3O[C@H](C)C[C@H](N(C)C)[C@H]3OC(C)=O)[C@@H](C)C[C@@]3(CO3)C(=O)[C@H](C)[C@@H](OC(C)=O)[C@@H](C)[C@@H](C)OC(=O)[C@@H]2C)O[C@@H](C)[C@@H]1OC(C)=O [Troleandomycin] | 1.05 | 1.01 | 0.886 | 0.87 | 0.89 | 0.236 | 1.07 | 1.17 | 1.21 | 1.21 | 0.983 | 0.344 | 

— the supplement of paper PMC12494721
